{
  "source": "patent US20210378995A1",
  "about": "“METHODS AND TOPICAL PHARMACEUTICAL COMPOSITIONS FOR THE TREATMENT OF SKIN MICROVASCULAR DYSFUNCTION” (INSERM (INSTITUT NATIONAL DE LA SANTÉ ET DE LA RECHERCHE …, priority 2018, published 2021)",
  "key": {"[1]": {"experiment": "Percutaneous passage of GSK2256294 topical formulations in Franz's cells on pig ear skin (Example 5)", "type": "in vitro ADME", "description": "First GSK2256294 topical formulations used DMSO and water 50/50% as vehicle. The experiments were conducted with Franz's cell using the skin of a pig's ear. The donor compartment was filled by an 20 μL of solution with a concentration between 100 to 400 μg/g of GSK2256294. The receptor medium was constituted by 4.5 mL of PBS, was at 32° C. and under magnetic stirring. Samples from the receptor compartment were collected at different times over 24 hours to determine the passage flow of GSK2256294. Second GSK2256294 topical formulation using alcohol, isopropanol, propylene glycol and DMSO 50/50% as vehicle with a GSK2256294's concentration at 200 μg/g were tested in the same conditions. Samples were then frozen at −20° C. The […] quantification was realized by HPLC/MS/MSS."}, "[2]": {"experiment": "Solubility in paraffin wax vehicle", "type": "physicochemical", "settings": "paraffin wax vehicle could not be used"}, "[3]": {"experiment": "Percutaneous absorption using Franz's cells on pigskin, influence of the solvent (Example 1)", "method": "The skin of a pig's ears was chosen for the experiments as it is very similar to that of a human skin. […] The receptor compartment contained 4.5 mL of PBS and was under magnetic stirring. […] Samples were frozen at −20° C."}, "[4]": {"settings": "GSK2256294 4 μg/mL, vehicle DMSO/water 50%/50%"}, "[5]": {"settings": "GSK2256294 40 μg/mL, 'with DMSO'"}, "[6]": {"settings": "GSK2256294 40 μg/mL, vehicle DMSO/water 50%/50%"}, "[7]": {"settings": "GSK2256294, vehicle water at pH3"}, "[8]": {"settings": "GSK2256294, vehicle water at pH3/alcohol 50/50%"}},
  "data": [
    {"smiles": "CNc1nc(C)nc(N[C@H]2CCC[C@@H](C(=O)NCc3ccc(C#N)cc3C(F)(F)F)C2)n1", "note": "[GSK2256294, (1R,3S)—N-[[4-cyano-2-(trifluoromethyl)phenyl]methyl]-3-[[4-methyl-6-(methylamino)-1,3,5-triazin-2-yl]amino]cyclohexane-1-carboxamide]", "values": [
      {"measurement": "flow between 4 and 12 h", "setting": "[1]; DMSO/water 50/50%, GSK2256294 200 μg/g", "value": 64.83, "unit": "ng/h/cm^2"},
      {"measurement": "flow between 4 and 12 h", "setting": "[1]; DMSO/water 50/50%, lower end of GSK2256294 concentration range 100 to 400 μg/g", "value": 41.92, "unit": "ng/h/cm^2"},
      {"measurement": "flow between 4 and 12 h", "setting": "[1]; DMSO/water 50/50%, upper end of GSK2256294 concentration range 100 to 400 μg/g", "value": 102.26, "unit": "ng/h/cm^2"},
      {"measurement": "flow between 4 and 12 h", "setting": "[1]; alcohol/water 50/50%, GSK2256294 200 μg/g", "value": 55.9, "unit": "ng/h/cm^2"},
      {"measurement": "flow between 4 and 12 h", "setting": "[1]; isopropanol/water 50/50%, GSK2256294 200 μg/g", "value": 74.38, "unit": "ng/h/cm^2"},
      {"measurement": "flow between 4 and 12 h", "setting": "[1]; propylene glycol/water 50/50%, GSK2256294 200 μg/g", "value": 48.49, "unit": "ng/h/cm^2"},
      {"measurement": "solubility in paraffin wax", "setting": "[2]", "value": "lack of solubility"},
      {"measurement": "absorbed and released by the pigskin over 24 hrs", "setting": "[3]; [4]", "value": 10.5, "unit": "%"},
      {"measurement": "percutaneous absorption flow", "setting": "[3]; [4]", "value": 21.9, "unit": "ng/cm^2/h"},
      {"measurement": "passage rate", "setting": "[3]; [5]", "value": 7.04, "unit": "%"},
      {"measurement": "percutaneous absorption flow", "setting": "[3]; [5]", "value": 134.1, "unit": "ng/cm^2/h"},
      {"measurement": "absorbed and released by the pigskin over 24 hrs", "setting": "[3]; [6]", "value": 9.02, "unit": "%"},
      {"measurement": "percutaneous absorption flow", "setting": "[3]; [6]", "value": 167.4, "unit": "ng/cm^2/h"},
      {"measurement": "percutaneous absorption flow", "setting": "[3]; GSK2256294, vehicle PEG400", "value": "No flow"},
      {"measurement": "passage rate", "setting": "[3]; [7]", "value": 8.31, "unit": "%"},
      {"measurement": "percutaneous absorption flow", "setting": "[3]; [7]", "value": 167.4, "unit": "ng/cm^2/h"},
      {"measurement": "passage rate", "setting": "[3]; [8]", "value": 3.52, "unit": "%"},
      {"measurement": "percutaneous absorption flow", "setting": "[3]; [8]", "value": 38.6, "unit": "ng/cm^2/h"}
    ]}
  ]
}
